Laboratory results taken from US12077586B2, “Bispecific antibodies for use in the treatment of hematological malignancies” (LAVA THERAPEUTICS N.V., priority 2018, dated 2024).

Columns and labels:
[1] = system: CD1d-transfected MM.1s cells; experiment: VHH binding to CD1d-transfected MM.1s cells (flow cytometry); parameters: species or system human; settings: read-out: apparent Kd
Vγ9Vδ2-T cells [2] = experiment: Cytokine and degranulation assay, Vγ9Vδ2-T cells cocultured with Jeko-1 cells; format: cell-based, human; settings: bispecific antibody alone, without target cells
Jeko-1 cells [3] = experiment: Cytotoxicity assay with Vγ9Vδ2-T cell lines, Jeko-1 target cells; format: cell-based, human
Procedure: (§1) Target cells were then cocultured overnight with Vγ9Vδ2-T cell lines in a 1:1 ratio unless otherwise indicated. Viability was measured using Mitotracker Orange (25-minute incubation at 37° C., M7510) and To-pro-3 (10-minute incubation at room temperature; T3605, both Thermo Fisher Scientific).
(§2) If indicated, target cells were pretreated with 25 μM mevastatin (M2537, Sigma-Aldrich), 50 μM aminobisphosphonates (pamidronate, #12J08RD, TEVA Pharmachemie, Haarlem, the Netherlands) or medium control for 2 hours.
(§3) If indicated, cells were cultured with the indicated concentrations of all-trans retinoic acid (ATRA; R2625, Sigma-Aldrich) for 48 hours unless otherwise indicated. ATRA was washed away prior to cytotoxicity assays.
If indicated, target cells were pre-incubated with 5 μg/mL anti-CD1d mAb (clone 51.1, 350304, Biolegend, San Diego, CA, USA) and/or 10 μg/mL anti-CD277 mAb (clone 103.2, Creative Biolabs, Shirley, NY, USA) for 10 minutes.

[4] = system: CD1d-transfected MM.1s cells; experiment: Cytotoxicity assay with Vγ9Vδ2-T cell lines, CD1d-transfected MM.1s; format: cell-based, human; settings: overnight coculture with Vγ9Vδ2-T cells
Procedure: (§4) (A) Specific lysis of Jeko-1 cell line (n=3). (B) CD1d expression on WT or CD1d-transfected MM.1s cell line (blank histogram: CD1d-stained, grey filled histogram: fluorescence minus one control). (C) Specific lysis of WT or CD1d-transfected MM.1s cell line (n=4). (D) Specific lysis of primary CLL cells with negative, low or high CD1d expression (n=4 per group). Specific lysis is calculated by correcting for background cell death in condition without Vγ9Vδ2-T cells. Data represent mean and SD. *P<0.05, **P<0.01, ****P<0.0001. (A: one-way ANOVA followed by Dunnett's post hoc test compared to untreated condition, C: two-way ANOVA followed by Sidak's post hoc test comparing WT vs CD1d for each concentration, D: two-way ANOVA followed by Tukey's post hoc test comparing each CD1d group for each concentration).
as §1

[5] = system: wildtype CD1d-negative MM.1s cells; experiment: Cytotoxicity assay with Vγ9Vδ2-T cell lines, wildtype MM.1s; format: cell-based, human; settings: overnight coculture with Vγ9Vδ2-T cells
Procedure: as §4, §1

primary CLL cells = experiment: Cytotoxicity assay with Vγ9Vδ2-T cell lines, primary CLL cells; format: cell-based
Procedure: as §4, §1, §3

[6] = system: CLL patient-derived Vγ9Vδ2-T cells; experiment: Activation, cytokine and degranulation assay with autologous CLL patient-derived Vγ9Vδ2-T cells; format: cell-based, human
Source text: (§5) (A-C) Activation of and cytokine production and degranulation by patient-derived Vγ9Vδ2-T cells. […] (D) Lysis of primary CLL cells by autologous Vγ9Vδ2-T cells. […] Live CLL cells were quantified by flow cytometry using counting beads (n=5). (E) Expansion of patient-derived Vγ9Vδ2-T cells. […] Percentage Vγ9Vδ2-T cells after 1 week (n=8). Data are presented as mean and SD. *P<0.05, **P<0.01, ***P<0.001. (A-D: one-way ANOVA followed by Dunnett's post hoc test compared to medium control; E: paired t-test).

autologous CLL cells = experiment: Cytotoxicity assay with patient-derived Vγ9Vδ2-T cells against autologous CLL cells; format: cell-based, human; settings: 10 nM; CD3:PBMC 5:1 or 20:1
Source text: as §5
For cytotoxicity assays performed with patient-derived Vγ9Vδ2-T cells, CD3^+ cells were enriched from patient PBMC by magnetic bead selection (130-050-101, Miltenyi Biotec; ≥90% purity). […] Viable cells were then quantified by fluorescence-labeled antibodies and viability dyes in combination with counting beads (01-1234-42, Thermo Fisher Scientific).

[7] = system: CLL patient-derived Vγ9Vδ2-T cells; experiment: Proliferation assay of CLL patient-derived Vγ9Vδ2-T cells; format: cell-based, human; settings: 1 week
Source text: as §5
For proliferation assays, PBMCs from CL patients were enriched for T cells by depletion of CD19^+ CLL cells. After attachment of irradiated (30Gy) […] fibroblasts to culture plates, T cell enriched PBMC (≤10% CD19^+) and purified CD19^+ (≥90% CD19^+) PBMC fractions were added in a 2:1 (CD19:CD19^+) ratio.

healthy B cells = experiment: Mixed coculture cytotoxicity (Vγ9Vδ2-T cell: B cell: CLL cell 1:1:1), healthy B cells; format: cell-based, human; settings: 6 hours
Procedure: (§6) (A) Specific lysis of Jeko-1 cells after pretreatment with mevastatin or pamidronate. […] (B) CD1d expression on B cells from healthy donor PBMCs. (C) Specific lysis of healthy B cells and CLL cells after pretreatment with ABP. Healthy B cells (isolated from healthy donor PBMCs, CFSE-labeled) and CLL cells (isolated from CLL PBMCs, CTV-labeled) were mixed in 1:1 ratio and pretreated with 50 μM pamidronate or medium control for 2 hours. […] (D) Specific lysis of Jeko-1 cells after blockade of CD1d or CD277. Jeko-1 cells were incubated with an anti-CD1d antibody (5 μg/mL), anti-CD277 antibody (10 μg/mL), anti-CD1d and anti-CD277 antibodies, or medium control for 10 minutes. […] Specific lysis is calculated by correcting for background cell death in condition without Vγ9Vδ2-T cells. Data represent mean and SD. *P<0.05, **P<0.01, ***P<0.001. (A: two-way ANOVA followed by Dunnett's post hoc test comparing control vs each pretreatment; C: two-way ANOVA followed by Sidak's post hoc test comparing untreated vs ABP pre-treated D: one-way ANOVA followed by Dunnett's post hoc test compared to medium control).
as §2
(§7) Healthy B cells express low levels of CD1d (FIG. 12B). […]

CLL cells = experiment: Mixed coculture cytotoxicity (Vγ9Vδ2-T cell: B cell: CLL cell 1:1:1), CLL cells; format: cell-based, human; settings: 6 hours
Procedure: as §6, §2, §7

[8] = system: CD1d expression on Jeko-1 cells; experiment: CD1d expression on Jeko-1 cells after ATRA treatment; format: cell-based, human; settings: 48 hours
Procedure: (§8) (A) CD1d expression on Jeko-1 cells after 48 hours of ATRA treatment. (B) Time-curve of CD1d expression upon ATRA treatment (n=3). (C) Viability of Jeko-1 cells after 48 hours of treatment with 100 nM ATRA (n=4). (D) Lysis of Jeko-1 cells after pretreatment with ATRA. […] (E) CD1d expression on primary CLL cells after 48 hours of different concentrations of ATRA or medium control treatment (n=17). (F) Lysis of CLL cells after pretreatment with ATRA. […] Specific lysis is calculated by correcting for background cell death in condition without Vγ9Vδ2-T cells. Data represent mean and SD. *P<0.05, ***P<0.001, ****P<0.0001. (C: paired t-test; D, F: two-way ANOVA followed by Sidak's post hoc test comparing control vs ATRA-treated for each concentration; E: Friedman test followed by Dunnett's post hoc test compared to medium control).
(§9) Cells were stained with antibodies and viability dyes (Table 4) and measured on an LSR Fortessa or FACS Canto cytometer (BD Biosciences, Franklin Lakes, NJ, USA). Samples were analyzed with Flowjo MacV10. Cytofix/Cytoperm reagent was used for detection of intracellular cytokines (BD Biosciences). Relative CD1d expression is defined as geometric MFI (CD1d stained)—geometric MFI (fluorescence minus one).
If indicated, cells were cultured with the indicated concentrations of all-trans retinoic acid (ATRA; R2625, Sigma-Aldrich) for 48 hours unless otherwise indicated. […]

Jeko-1 cells [9] = experiment: Viability of Jeko-1 cells after ATRA treatment; format: cell-based, human; settings: 100 nM ATRA, 48 hours
Procedure: as §8, §3

[10] = system: CD1d expression on primary CLL cells; experiment: CD1d expression on primary CLL cells after ATRA treatment; format: cell-based, human; settings: for Increase of CD1d levels: primary CLL cells, 48 hours
Procedure: as §8, §9, §3

Vδ2 chain = target: T1, Vδ2 chain (Homo sapiens, UniProt A0JD36); settings: Mean Fluorescence Index class; γδ T-cells expressing Vδ2 chain paired with non Vγ9 chain; cited from earlier work
T1 construct: host or cells: γδ T-cells expressing a Vδ2 chain paired with a non-Vγ9 chain
T1 sequence (A0JD36 with tags, fused parts or gaps): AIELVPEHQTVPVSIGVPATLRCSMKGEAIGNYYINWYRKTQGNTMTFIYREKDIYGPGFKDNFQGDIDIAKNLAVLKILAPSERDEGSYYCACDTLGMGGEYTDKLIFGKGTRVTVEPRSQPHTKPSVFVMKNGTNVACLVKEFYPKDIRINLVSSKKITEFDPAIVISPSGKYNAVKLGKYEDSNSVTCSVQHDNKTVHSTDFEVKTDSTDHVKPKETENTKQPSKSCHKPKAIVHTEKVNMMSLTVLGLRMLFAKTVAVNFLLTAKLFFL
T1 sequence (P07766 23-207 partner): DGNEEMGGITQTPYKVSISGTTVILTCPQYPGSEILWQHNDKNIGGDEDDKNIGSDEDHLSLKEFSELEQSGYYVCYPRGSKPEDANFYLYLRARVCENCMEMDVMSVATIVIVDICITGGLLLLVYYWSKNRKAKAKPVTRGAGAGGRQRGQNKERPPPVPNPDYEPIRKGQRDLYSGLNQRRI
T1 sequence (P09693 23-182 partner): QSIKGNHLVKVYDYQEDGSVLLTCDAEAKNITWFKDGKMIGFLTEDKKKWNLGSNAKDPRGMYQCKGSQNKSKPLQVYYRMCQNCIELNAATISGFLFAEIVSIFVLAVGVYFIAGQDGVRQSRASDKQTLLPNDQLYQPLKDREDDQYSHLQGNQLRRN
T1 sequence (P04234 22-171 partner): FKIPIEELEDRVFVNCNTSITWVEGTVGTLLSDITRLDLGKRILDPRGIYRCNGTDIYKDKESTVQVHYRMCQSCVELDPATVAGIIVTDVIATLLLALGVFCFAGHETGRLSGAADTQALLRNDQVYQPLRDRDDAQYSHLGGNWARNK
T1 sequence (P20963 22-164 partner): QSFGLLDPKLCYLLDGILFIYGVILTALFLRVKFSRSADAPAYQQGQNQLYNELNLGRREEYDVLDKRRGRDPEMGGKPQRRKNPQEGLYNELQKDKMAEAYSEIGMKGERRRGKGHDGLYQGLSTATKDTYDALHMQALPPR

Vγ9 chain = target: T2, Vγ9 chain (Homo sapiens, UniProt Q99603, T7A); settings: Mean Fluorescence Index class; γδ T-cells expressing Vγ9 chain paired with non Vδ2 chain; cited from earlier work
T2 construct: host or cells: γδ T-cells expressing a Vγ9 chain paired with a non-Vδ2 chain
T2 sequence (Q99603 with tags, fused parts or gaps T7A limits assumed): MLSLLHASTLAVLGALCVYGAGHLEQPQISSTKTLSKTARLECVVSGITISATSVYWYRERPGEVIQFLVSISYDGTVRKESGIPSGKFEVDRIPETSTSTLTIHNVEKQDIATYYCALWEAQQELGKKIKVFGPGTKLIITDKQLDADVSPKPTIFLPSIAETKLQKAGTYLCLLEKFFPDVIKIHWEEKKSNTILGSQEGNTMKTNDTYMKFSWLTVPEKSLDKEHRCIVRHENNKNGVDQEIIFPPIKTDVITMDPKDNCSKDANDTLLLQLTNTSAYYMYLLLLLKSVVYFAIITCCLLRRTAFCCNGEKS
T2 sequence (P07766 23-207 partner): as the sequence (P07766 23-207 partner) above
T2 sequence (P09693 23-182 partner): as the sequence (P09693 23-182 partner) above
T2 sequence (P04234 22-171 partner): as the sequence (P04234 22-171 partner) above
T2 sequence (P20963 22-164 partner): as the sequence (P20963 22-164 partner) above

complete Vγ9Vδ2 TCR = target: T3, complete Vγ9Vδ2 TCR (Homo sapiens, UniProt A0JD36+Q99603, T7A); settings: Mean Fluorescence Index class; cited from earlier work
T3 construct: host or cells: γδ T-cells expressing the complete Vγ9Vδ2 TCR
T3 sequence (Q99603 with tags, fused parts or gaps T7A limits assumed): as the sequence (Q99603 with tags, fused parts or gaps T7A limits assumed) above
T3 sequence (A0JD36 with tags, fused parts or gaps, stated change not applied): as the sequence (A0JD36 with tags, fused parts or gaps) above
T3 sequence (P07766 23-207 partner): as the sequence (P07766 23-207 partner) above
T3 sequence (P09693 23-182 partner): as the sequence (P09693 23-182 partner) above
T3 sequence (P04234 22-171 partner): as the sequence (P04234 22-171 partner) above
T3 sequence (P20963 22-164 partner): as the sequence (P20963 22-164 partner) above

[11] = system: γδ T-cells not expressing any of the Vγ9Vδ2 TCR chains; settings: Mean Fluorescence Index class; cells not expressing any Vγ9Vδ2 TCR chain; cited from earlier work
Vγ9Vδ2-T cells [12] = settings: previous work; cited from earlier work
[13] = 100 nM, overnight coculture with Vγ9Vδ2-T cells 1:1
[14] = 10 pM 1D7-5C8, with ABP (50 μM pamidronate pretreatment)

## 1D7-5C8: CD1d-Vδ2 bispecific VHH: 1D7 (N-terminal) joined to 5C8 (C-terminal) with Gly4Ser-linker, SEQ ID NO: 165
[1]
  Kd: 0.4 nM
Vγ9Vδ2-T cells [2]
  IFN-γ production and degranulation of Vγ9Vδ2-T cells: did not produce IFN-γ and hardly degranulated
Jeko-1 cells [3]; 10 pM 1D7-5C8 with CD1d-blocking antibody (5 μg/mL)
  Lysis of Jeko-1 cells: 13.7%±1.0
Jeko-1 cells [3]; 10 pM 1D7-5C8 with CD1d and CD277 simultaneously blocked
  Lysis of Jeko-1 cells: 9.4%±0.8
Jeko-1 cells [3]; 10 nM, overnight coculture with Vγ9Vδ2-T cells 1:1
  Lysis of Jeko-1 cells: 75.2%±21.0
Jeko-1 cells [3]; CD1d and CD277 simultaneously blocked
  Decline of 1D7-5C8-induced lysis: 20.2%
Jeko-1 cells [3]; in the absence of Vγ9Vδ2-T cells
  Target cell lysis: did not induce target cell lysis
Jeko-1 cells [3]; with CD1d-blocking antibody, on average
  Decrease of 1D7-5C8-induced lysis: 15.9%
[4]
  Lysis of CD1d+ MM.1s cells: clearly increased lysis
[5]
  Lysis of wildtype MM.1s cells: had no effect on lysis of the wildtype cells
Primary CLL cells; [13]
  Lysis of CD1d high CLL cells: 74.5%±19.1
  Lysis of CD1d low CLL cells: 49.3%±6.6
[6]; overnight culture of CLL PBMC, 1D7-5C8 50 nM
  Upregulation of activation marker CD25 on patient Vγ9Vδ2-T cells: 20.8 fold
[6]; overnight, 50 nM
  Cytokine production by patient-derived Vγ9Vδ2-T cells: induced production of IFN-γ and TNF-α
  Degranulation of patient-derived Vγ9Vδ2-T cells: triggered Vγ9Vδ2-T cell degranulation
Autologous CLL cells
  Lysis of autologous CLL cells by patient-derived Vγ9Vδ2-T cells: enables autologous tumor lysis at relatively low E:T ratios
[7]; IL-2 50 IU/mL and 50 nM 1D7-5C8, baseline 1.2%
  Percentage of Vγ9Vδ2-T cells within the T cell fraction: 5.6%±4.7
[7]; IL-2 50 IU/mL, 50 nM 1D7-5C8
  Percentage of Vγ9Vδ2-T cells with versus without antibody: 3.1 fold
Healthy B cells; 10 pM 1D7-5C8, no ABP
  Lysis of healthy B cells: 4.8%±0.6
Healthy B cells; [14]
  Lysis of healthy B cells: 5.4%±4.5
CLL cells; 10 pM 1D7-5C8, no ABP
  Lysis of CLL cells: 19.6%±4.8
CLL cells; [14]
  Lysis of CLL cells: 25.1%±5.2

## CC1=C(/C=C/C(C)=C/C=C/C(C)=C/C(=O)O)C(C)(C)CCC1 [ATRA, all-trans retinoic acid]
Jeko-1 cells [3]; 100 nM ATRA 48 hours, then Vγ9Vδ2-T cells 1:2 plus 1D7-5C8
  Sensitivity of ATRA-pretreated Jeko-1 cells to 1D7-5C8-induced cell death: more sensitive to bispecific antibody 1D7-5C8-induced cell death than control Jeko-1 cells
Primary CLL cells; 100 nM ATRA 48 hours, then Vγ9Vδ2-T cells 1:1 plus 1D7-5C8
  Sensitivity of ATRA-pretreated primary CLL cells to 1D7-5C8-mediated cell death: did sensitize primary CLL cells to bispecific antibody 1D7-5C8-mediated cell death
[8]
  ATRA concentration at which upregulation of CD1d expression was detectable: 10 pM
Jeko-1 cells [9]
  Direct induction of cell death: did not induce cell death directly
[10]; primary CLL cells after 100 nM ATRA
  CD1d relative MFI: 504.6±366.0
[10]; 1 nM ATRA
  Increase of CD1d levels: 2.6 fold
[10]; 100 nM ATRA, on average
  Increase of CD1d levels: 3.7 fold

B1: 5C8: Vγ9Vδ2-specific VHH binding to the Vδ2 chain of the TCR, SEQ ID NO: 149 (protein)
VHH: EVQLVESGGGLVQAGGSLRLSCAASGRPFSNYAMGWFRQAPGKEREFVAAISWSGGSTSYADSVKGRFTISRDNAKNTVYLQMNSPKPEDTAIYYCAAQFSGADYGFGRLGIRGYEYDYWGQGTQVTVSS
modifications: antibody sequence
Vδ2 chain
  Binding, Vδ2+: ++ (“++” indicates an MFI above 20)
Vγ9 chain
  Binding, Vγ9+: − (“−” indicates a Mean Fluorescence Index (MFI) below 1.5)
Complete Vγ9Vδ2 TCR
  Binding, Vγ9Vδ2+: ++ (“++” indicates an MFI above 20)
[11]
  Binding, Vγ9Vδ2−: − (“−” indicates a Mean Fluorescence Index (MFI) below 1.5)
Vγ9Vδ2-T cells [12]
  Inhibition of phosphoantigen-CD277 mediated Vγ9Vδ2-T cell activation: not effective in inhibiting phosphoantigen-CD277 mediated Vγ9Vδ2-T cell activation
